According to patent publication US20210179666A1, “CYCLIC PEPTIDES AND METHODS OF USE THEREOF” (Regents of the University of Minnesota, priority 2019, published 2021):
pEC50, pIC50: −log10 of the molar value. “And” between values parts separate entries of the source, which are not always exact repeats. Equal entries are not always repeated. Where two headings read alike, the source gives them in different places. Square brackets hold non-standard residues; d marks the D form. Peptide text beside a SMILES is read from it. Gly(N-(CH2)3-guanidino) = N=C(N)NCCCNCC(=O)O; Dap = NC[C@H](N)C(=O)O

Tests used:
mMC4R [1] = molecular target: T1, mMC4R (Mus musculus, UniProt P56450); assay: cell-based
T1 sequence (P56450 whole entry): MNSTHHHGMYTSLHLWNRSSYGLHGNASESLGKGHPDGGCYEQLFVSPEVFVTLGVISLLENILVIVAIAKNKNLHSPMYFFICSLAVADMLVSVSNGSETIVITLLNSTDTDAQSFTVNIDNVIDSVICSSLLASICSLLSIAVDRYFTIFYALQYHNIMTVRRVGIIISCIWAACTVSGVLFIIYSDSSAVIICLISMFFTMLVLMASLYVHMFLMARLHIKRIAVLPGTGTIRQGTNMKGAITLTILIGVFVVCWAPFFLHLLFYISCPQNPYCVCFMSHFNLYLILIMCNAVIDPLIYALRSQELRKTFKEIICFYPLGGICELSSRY

hMC4R [2] = molecular target: T2, hMC4R (Homo sapiens, UniProt P32245); assay: cAMP AlphaScreen bioassay, HEK293 cells stably expressing hMC4R; format: cell-based; set-up: expressed in transfected cells; conditions: for Observed Inverse Agonism?: hMC4R, cAMP; for hMC4R pA2: antagonist pA2, Schild analysis with agonist NDP-MSH, ± SEM, <5.0 = no antagonist potency up to 10,000 nM
T2 sequence (P32245 whole entry): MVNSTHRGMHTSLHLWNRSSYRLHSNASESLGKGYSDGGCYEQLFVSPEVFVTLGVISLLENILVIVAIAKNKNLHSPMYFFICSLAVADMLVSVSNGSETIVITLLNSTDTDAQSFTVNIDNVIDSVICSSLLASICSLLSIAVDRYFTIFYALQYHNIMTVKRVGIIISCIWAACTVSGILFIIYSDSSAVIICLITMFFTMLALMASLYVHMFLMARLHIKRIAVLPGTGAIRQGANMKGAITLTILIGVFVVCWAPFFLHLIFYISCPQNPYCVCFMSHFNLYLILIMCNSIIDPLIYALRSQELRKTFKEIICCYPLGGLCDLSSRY

mMC1R [3] = molecular target: T3, mMC1R (Mus musculus, UniProt Q01727); assay: cAMP AlphaScreen bioassay, HEK293 cells stably expressing mMC1R; conditions: Example 2; @ 100 μM; EC50 not determinable
T3 sequence (Q01727 whole entry): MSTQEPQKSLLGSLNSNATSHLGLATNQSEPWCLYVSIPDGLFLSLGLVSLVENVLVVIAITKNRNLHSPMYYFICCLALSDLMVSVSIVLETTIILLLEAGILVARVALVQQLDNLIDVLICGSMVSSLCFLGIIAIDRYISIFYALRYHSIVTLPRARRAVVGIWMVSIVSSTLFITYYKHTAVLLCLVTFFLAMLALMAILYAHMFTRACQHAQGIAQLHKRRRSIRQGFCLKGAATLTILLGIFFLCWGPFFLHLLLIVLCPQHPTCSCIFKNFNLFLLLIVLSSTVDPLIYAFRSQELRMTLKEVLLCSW

mMC5R [4] = molecular target: T4, mMC5R (Mus musculus, UniProt P41149); set-up: expressed in transfected cells; conditions: compounds 1 and 2, previously reported; cited from earlier work
T4 sequence (P41149 whole entry): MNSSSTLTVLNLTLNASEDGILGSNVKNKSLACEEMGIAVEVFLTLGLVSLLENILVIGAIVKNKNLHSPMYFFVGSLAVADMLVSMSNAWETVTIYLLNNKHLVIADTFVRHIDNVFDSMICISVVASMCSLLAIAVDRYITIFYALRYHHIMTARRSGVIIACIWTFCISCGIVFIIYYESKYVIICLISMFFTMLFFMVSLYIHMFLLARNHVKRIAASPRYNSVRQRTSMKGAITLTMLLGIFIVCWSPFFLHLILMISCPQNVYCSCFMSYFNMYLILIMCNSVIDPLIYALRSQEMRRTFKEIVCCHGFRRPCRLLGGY

mMC3R [5] = molecular target: T5, mMC3R (Mus musculus, UniProt P33033); conditions: compounds 1 and 2, previously reported, cited from earlier work; for mMC3R pA2: antagonist
T5 sequence (P33033 whole entry): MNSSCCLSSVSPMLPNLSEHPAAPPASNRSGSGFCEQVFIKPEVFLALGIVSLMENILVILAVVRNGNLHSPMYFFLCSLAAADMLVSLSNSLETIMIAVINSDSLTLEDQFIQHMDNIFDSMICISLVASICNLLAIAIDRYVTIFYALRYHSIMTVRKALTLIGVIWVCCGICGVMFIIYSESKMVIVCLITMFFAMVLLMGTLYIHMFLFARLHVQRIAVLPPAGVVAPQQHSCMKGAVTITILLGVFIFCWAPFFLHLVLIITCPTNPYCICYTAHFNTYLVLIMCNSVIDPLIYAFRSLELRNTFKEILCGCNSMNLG

mMC3R [6] = molecular target: T5, mMC3R; conditions: for mMC3R pA2: antagonist, Schild analysis with NDP-MSH, ± SEM
mMC5R [7] = molecular target: T4, mMC5R; conditions: for mMC5R pA2: Example 1, antagonist, Schild analysis with NDP-MSH, ± SEM, reported herein for the first time
mMC4R [8] = molecular target: T1, mMC4R; assay: 125I-NDP-MSH competitive binding assay, transfected HEK293 cells, mMC4R; conditions: binding IC50 versus control 1 (Asn) or 2 (Dap)
mMC1R [9] = molecular target: T3, mMC1R; assay: 125I-NDP-MSH competitive binding assay, transfected HEK293 cells, mMC1R; conditions: binding IC50 versus control 1 (Asn) or 2 (Dap)
hMC4R [10] = molecular target: T2, hMC4R; assay: 125I-NDP-MSH competitive binding assay, transfected HEK293 cells, hMC4R; conditions: binding IC50 versus control 1 (Asn) or 2 (Dap)
mMC3R [11] = molecular target: T5, mMC3R; assay: 125I-NDP-MSH competitive binding assay, transfected HEK293 cells, mMC3R; conditions: binding IC50 versus control 1 (Asn) or 2 (Dap)
mMC5R [12] = molecular target: T4, mMC5R; assay: 125I-NDP-MSH competitive binding assay, transfected HEK293 cells, mMC5R; conditions: binding IC50 versus control 1 (Asn) or 2 (Dap)
mMC4R [13] = molecular target: T1, mMC4R; conditions: Example 1; for mMC4R pA2: antagonist, Schild analysis with NDP-MSH, ± SEM, <5.0 = no antagonist potency up to 10,000 nM
MC5R = MC5R (Homo sapiens, UniProt P33032); conditions: chemically synthetized AgRP ligands, Yang et al. 1999, cited from earlier work
Chain of MC5R (P33032 whole entry, species assumed): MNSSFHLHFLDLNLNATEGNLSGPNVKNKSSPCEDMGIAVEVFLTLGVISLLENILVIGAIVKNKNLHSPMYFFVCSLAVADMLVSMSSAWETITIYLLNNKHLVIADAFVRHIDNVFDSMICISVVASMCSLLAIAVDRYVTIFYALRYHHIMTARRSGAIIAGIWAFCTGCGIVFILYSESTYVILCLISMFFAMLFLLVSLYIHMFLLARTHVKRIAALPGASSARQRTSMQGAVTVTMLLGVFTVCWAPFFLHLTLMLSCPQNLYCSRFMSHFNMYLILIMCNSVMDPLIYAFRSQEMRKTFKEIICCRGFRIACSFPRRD

[14] = Example 1, <5.0 = no antagonist potency up to 10,000 nM

| Compound | Observed Inverse Agonism? (hMC4R [2]) | hMC4R pA2 (hMC4R [2]) | mMC4R Fold Diff (mMC4R [8]) | mMC1R Fold Diff (mMC1R [9]) | hMC4R Fold Diff (hMC4R [10]) | mMC3R Fold Diff (mMC3R [11]) | mMC3R pA2 (mMC3R [6]; [14]) | mMC5R Fold Diff (mMC5R [12]) | mMC5R pA2 (mMC5R [7]) | mMC4R pA2 (mMC4R [13]) | further results |
| --- | --- | --- | --- | --- | --- | --- | --- | --- | --- | --- | --- |
| C[C@@H]1NC(=O)[C@H](CN)NC(=O)[C@H](Cc2ccccc2)NC(=O)[C@H](Cc2ccccc2)NC(=O)CN(CCCNC(=N)N)C(=O)[C@@H]2CCCN2C(=O)[C@H]2CCCN2C(=O)[C@H](Cc2ccccc2)NC1=O [MDE8-108-3c, c[Pro-NArg-Phe-Phe-Dap-Ala-Phe-DPro]] (cyclo([Gly(N-(CH2)3-guanidino)]FF[Dap]AF[dP]P)) |  |  |  |  |  |  |  |  |  |  | Kb (mMC4R [1]): 3160 nM |
| C[C@@H]1NC(=O)[C@H](CN)NC(=O)[C@H](Cc2ccccc2)NC(=O)[C@H](Cc2ccccc2)NC(=O)[C@H](CCCNC(=N)N)NC(=O)[C@@H]2CCCN2C(=O)[C@H]2CCCN2C(=O)[C@H](Cc2ccccc2)NC1=O [MDE 6-82-1c, c[Pro-Arg-Phe-Phe-Dap-Ala-Phe-DPro]] | Yes |  |  |  |  |  |  |  |  |  | mMC1R percent maximal stimulatory response (mMC1R [3]): 36% @; mMC5R inverse agonist, percent decrease from basal (mMC5R [4]): −15%; mMC5R pharmacology observed in agonist assay (Inverse Agonist) (mMC5R [4]): Inverse; pEC50 (mMC3R [5]; agonist): < 4.00; mMC3R pA2 (mMC3R [5]): 6.5 and 6.5 ± 0.09; mMC3R pA2 (mMC3R [5]; listed as MDE6-82-1c): 6.5-7.2; mMC3R percent maximal stimulatory response (mMC3R [6]; Example 2, @ 100 μM): 20% @; mMC3R pA2 (mMC3R [6]; Example 2, <5.5 = no antagonist potency up to 10,000 nM): 6.5; mMC3R pA2 (mMC3R [6]; Example 2, <5.5 = no antagonist potency up to 10,000 nM, listed as MDE6-82-1c): 6.5 ± 0.3; mMC5R pharmacology observed (Partial Agonist / Inverse Agonist) (mMC5R [7]; Example 2): Inverse; mMC5R inverse agonist, percent decrease from basal (mMC5R [7]; Example 2, basal to plateau signal, sigmoidal dose-response): −10% |
| CC(C)[C@@H]1NC(=O)[C@H](CC(N)=O)NC(=O)[C@H](Cc2ccccc2)NC(=O)[C@H](Cc2ccccc2)NC(=O)[C@H](CCCNC(=N)N)NC(=O)[C@@H]2CCCN2C(=O)[C@H]2CCCN2C(=O)[C@H](Cc2ccccc2)NC1=O [ZMK 2-82, c[Pro-Arg-Phe-Phe-Asn-Val-Phe-DPro]] (cyclo(PRFFNVF[dP])) | Yes | 7.7 | 2 | 2 | 3 | 3 | 5.9 and 5.9 ± 0.1 | 2 | 6.1 and 6.1 ± 0.09 | 7.2 and 7.2 ± 0.1 | hMC4R pA2 (hMC4R [2]; listed as AMK 2-82): 7.8 ± 0.03; mMC4R percent maximal stimulatory response (mMC4R [13]; @ 100 μM, relative to NDP-MSH signal): 16% @ |
| C[C@@H]1NC(=O)[C@H](CN)NC(=O)[C@H](Cc2ccccc2)NC(=O)[C@H](Cc2ccc(O)cc2)NC(=O)[C@H](CCCNC(=N)N)NC(=O)[C@@H]2CCCN2C(=O)[C@H]2CCCN2C(=O)[C@H](Cc2ccccc2)NC1=O [ZMK 2-112, c[Pro-Arg-Tyr-Phe-Dap-Ala-Phe-DPro]] (cyclo(PRYF[Dap]AF[dP])) | Yes | 7.5 and 7.5 ± 0.2 | 70 | 4 | 100 | 9 | 6.5 and 6.5 ± 0.1 | 20 | 6.5 and 6.5 ± 0.2 | 7.3 and 7.3 ± 0.1 |  |
| AgRP: agouti-related protein, endogenous MC3R and MC4R antagonist and MC4R inverse agonist | Yes |  |  |  |  |  |  |  |  |  | pIC50 (MC5R; read-out: IC50, displacement of radiolabeled NDP-MSH at the MC5R): 6.51; pIC50 (MC5R; read-out: IC50, displacement of radiolabeled AgRP at the MC5R): 7.59 |
